Patent US6515022B2, “Use of inhaled retinoids in the treatment of lung diseases” (Sloan-Kettering Institute for Cancer Research, priority 1996, dated 2003)
Converted amounts (≈) assume the structure as drawn. Read-outs that look alike come from different tables or passages of the source.

Assays:
[1] = Attempts at aqueous solutions (MOLECUSOL, ammonium salt); format: physicochemical; conditions: solutions containing 45% MOLECUSOL (modified beta cyclodextrin)
From the text: Next, because of a report that the solubility of retinol (vitamin A) in water could be increased by addition of modified beta cyclodextrin (MOLECUSOL®), we next tried to prepare aqueous solutions of all-trans retinoic acid using MOLECUSOL® to enhance the solubility. […] Similarly, efforts to solubilize all-trans retinoic acid in aqueous solution using phosphatidylcholine and phosphatidylethanolamine produced a viscous colloid which was unsuited for aerosol administration.
We next tried to use salts of the retinoids to obtain a water-soluble product for aerosol generation. When all-trans retinoic acid is treated with ammonium hydroxide, a water-soluble ammonium salt is obtained. The pH of solutions of this salt is too high (pH >10), however, for direct administration as an aerosol. Neutralization of the solution after dissolution of the retinoid led to the formation of a precipitate, both in the presence and absence of added beta cyclodextrin.

[2] = Tissue/plasma concentrations after intra-tracheal instillation (HPLC); format: in vivo, Sprague-Dawley rats; conditions: Sprague-Dawley, other: intra-tracheal instillation, rat, 100 μg intra-tracheal instillation
Protocol: To evaluate the bioavailability of retinoids delivered by inhalation, 100 μl of an aqueous solution containing 100 μg of all-trans retinoic acid was administered via intra-tracheal instillation to 3 Sprague-Dawley rats, each weighing approximately 200 g. One rat was then sacrificed at three time points: 1, 6 and 24 hours after treatment. At the time of sacrifice, the chest cavity was opened, both lungs and trachea were removed en bloc, and the right and left lungs were separated by dissection. The liver was also removed, along with a sample of blood obtained by cardiac puncture. The blood sample was separated by centrifugation, and plasma plus each of the aforementioned tissues were frozen for later analysis. Subsequently, the tissue was homogenized, and the homogenized tissue and plasma were extracted with ethanol.

in vivo = conditions: rat
Protocol: The biodistribution and pharmacokinetics of an inhaled formulation of all-trans retinoic acid were compared to both intra-tracheal and intravenous administration. Anesthetized (i.p. pentobarbitol 50 mg/kg) male Sprague-Dawley rats weighing 300 to 700 grams were treated by administration of all-trans retinoic acid by inhalation, iv injection or intra-tracheal injection. Inhaled and intra-tracheal injections were given through an endotracheal tube placed under direct vision over a guidewire as described by Weksler et al., J. Appl. Physiol. 76: 1823-1825 (1994). IV doses were given by catheter injection via the right external jugular vein.
For inhalation, all-trans retinoic acid was solublized in hydrofluorocarbon 123 using tetramethylamunonium hydroxide to a concentration of 5 mg/ml, and combined with hydrofluoroalkane 134a as propellant, for a final concentration of 1.5 mg per 1.475 grams of propellant solution. […] An identical inhaler containing propellant mixture without drug was used as a control. […] This procedure was also repeated with an angiocatheter fitted to the apparatus. The catheter was subsequently rinsed with 10 ml of isopropanol, which was also collected. The three solutions were then assayed for all-trans retinoic acid concentrations in order to determine the amount of drug delivered through the apparatus, as well as any residual drug that was bound to the angiocatheter. We defined the area under the concentration times-time curve (AUC) for animals who received intra-tracheal all-trans retinoic acid as 100% effective dose delivery to the lung.
For injection, an aqueous solution of all-trans retinoic acid was prepared in 20% ethanol, 10% Tween 20 and 1 mM NH4OH, for a final concentration of […] all-trans retinoic acid per ml of solution. A mixture of 20% ethanol and 10% Tween 20 served as a control.
Animals were grouped into three experimental groups and two control groups. The control groups received no treatment or a control inhalant containing no all-trans retinoic acid. Animals in the groups receiving iv or intra-tracheal injections each received a single dose containing 250 μg all-trans retinoic acid. Animals in the group treated with the multidose inhaler each received three doses for a total of 147 μg of all-trans retinoic acid.

physchem [3] = conditions: organic solvent or mixture, thermodynamic from solid
Protocol: Maximum solubility was determined by weighing the residue remaining after evaporation of the solvent.

physchem [4] = conditions: HCFC-123 without alkylamine, organic solvent or mixture
[5] = Solubility in chlorofluorocarbons with alkylamine solubilizers
[6] = Histologic examination of lungs and trachea after single-dose administration; conditions: rat
Protocol: Animals were sacrificed at 5 minutes and at 1, 2, 4 and 6 hours, and blood and liver and lung tissue were harvested for analysis by high performance liquid chromatography (HPLC) and histology. In addition, animals receiving the inhalant were sacrificed at 24 hours post-treatment.

[7] = left lung, read-out: Left Lung concentration
[8] = liver, read-out: Liver concentration
[9] = plasma, read-out: Plasma concentration
[10] = right lung, read-out: Right Lung concentration
[11] = trachea, read-out: Trachea concentration
[12] = male, Sprague-Dawley, inhaled or intranasal, 147 ug
[13] = male, Sprague-Dawley, iv, 250 ug

## CC1=C(/C=C/C(C)=C/C=C/C(C)=C/C(=O)O)C(C)(C)CCC1 [all-trans retinoic acid]
[1]
  Solubility in aqueous solution: enhance the solubility of the all-trans retinoic acid to a useful level
[2]; [7]
  concentration at 1 hour: 928 ng/g
  concentration at 6 hours: 56 ng/g
  concentration at 24 hours: 22 ng/g
[2]; [8]
  concentration at 1 hour: 233 ng/g
  concentration at 6 hours: 24 ng/g
  concentration at 24 hours: 23 ng/g
[2]; [9]
  concentration at 1 hour: 123 ng/mL
  concentration at 24 hours: 178 ng/mL
[2]; [10]
  concentration at 1 hour: 773 ng/g
  concentration at 6 hours: 91 ng/g
  concentration at 24 hours: 21 ng/g
[2]; [11]
  concentration at 1 hour: 2860 ng/g
  concentration at 6 hours: 96 ng/g
  concentration at 24 hours: 30 ng/g
In vivo; male, Sprague-Dawley
  Lung AUC, intra-tracheal route relative to aerosolized route: 100 times
  concentration at 1 hour: 68 ± 44 ng/mL
In vivo; male, Sprague-Dawley, 250 ug
  AUC: 191 ng·h/mL
  Liver AUC: 2532 ng-hr/gm
  Lung AUC: 26972 ng-hr/gm
In vivo; male, Sprague-Dawley, 250 ug, Liver T½
  half-life: 22 h
In vivo; male, Sprague-Dawley, 250 ug, Lung T½
  half-life: 17.7 h
In vivo; male, Sprague-Dawley, 250 ug, Plasma T½
  half-life: 1.9 h
In vivo; [12]
  AUC: 171 ng·h/mL
  Liver AUC: 2307 ng-hr/gm
  Lung AUC: 262 ng-hr/gm
In vivo; male, Sprague-Dawley, inhaled or intranasal, 147 ug, Lung T½
  half-life: 5.4 h
In vivo; male, Sprague-Dawley, inhaled or intranasal, 147 ug, Plasma T½
  half-life: 3 h
In vivo; male, Sprague-Dawley, inhaled or intranasal, 250 ug
  Total absorption (percent effective dose: inhaled AUC / intra-tracheal AUC): 1-2%
In vivo; [13]
  AUC: 1380 ng·h/mL
  Liver AUC: 4724 ng-hr/gm
  Liver T½: 0.8 h
  Lung AUC: 11910 ng-hr/gm
In vivo; male, Sprague-Dawley, iv, 250 ug, Liver T½
  half-life: 1 h
In vivo; male, Sprague-Dawley, iv, 250 ug, Lung T½
  half-life: 1.9 h
In vivo
  Lung AUC, intra-tracheal route relative to iv route: twice
Physchem [3]; ethyl acetate
  solubility: 10000 µg/mL (≈ 33.3 mM)
Physchem [3]; methylene chloride
  solubility: 5000 µg/mL (≈ 16.6 mM)
Physchem [4]
  solubility: ~2000 µg/mL (≈ 6.66 mM)
[5]; HCFC-123, alkylamine 1.44 mg/ml
  Maximum Solubility: ˜17 mg/ml
[5]; HCFC-123, alkylamine 7.22 mg/ml
  Maximum Solubility: ˜44 mg/ml
[6]
  Histologic examination of lungs and traches: no focal irritation attributable to the drug
